Measured values: patent US20110111396A1, “BIOMARKERS FOR MONITORING THE TREATMENT BY QUINAZOLINONE COMPOUNDS” (priority 2007, published 2011)

Experiments:
Type in all cases: cell-based
[1] = tested on: NHL cell lines (Namalwa, Rec-1, Jeko-1, Granta-519, JVM-2, DB); assay: NHL cell proliferation by 3H-thymidine incorporation assay
Experimental: As detailed below, the effect of the administration of a quinazolinone compound on several types of NHL cells was determined after 3 days using 3H-thymidine incorporation, microbead array technology and real time PCR.
To better understand how the effectiveness of quinazolinone compound administration varies among different cancer cell types, the quinazolinone compound 3-(2,5-dimethyl-4-oxo-4H-quinazolin-3-yl)-piperidine-2,6-dione was tested in vitro for its anti-proliferative effect in several NHL cell lines after 3 days of treatment.
(§1) NHL cell proliferation was assessed by 3H-thymidine incorporation assay. Briefly, cells were cultured in 96 well cell culture plates in complete RPMI-1640 medium in the presence and absence of drugs. Following incubation at 37° C. for 3 days, 1μCi 3H-thymidine was added to each well for the last 5 hours of incubation. The 3H incorporation of each well was then measured. The six tested cell lines were Namalwa, Rec-1, Jeko-1, Granta-519, JVM-2, and DB.

DB cell line = assay: NHL cell proliferation by 3H-thymidine incorporation assay, DB cell line; conditions: DB cells with t(14;18)
Experimental: as §1
Thus t(14;18) may be a negative prognostic factor in predicting clinical response to 3-(2,5-dimethyl-4-oxo-4H-quinazolin-3-yl)-piperidine-2,6-dione. Thus, SPARC gene expression can be used as a biomarker of NHL or MCL tumor response to quinazolinone compounds such as 3-(2,5-dimethyl-4-oxo-4H-quinazolin-3-yl)-piperidine-2,6-dione.

SPARC mRNA = SPARC mRNA level in NHL cells by real-time RT-PCR; conditions: sensitive NHL cells; 24 hours of incubation; 10 μM; FIG. 2
Experimental: The effect of the administration of 3-(2,5-dimethyl-4-oxo-4H-quinazolin-3-yl)-piperidine-2,6-dione in various NHL cells was measured after 24 hours of incubation, using real-time RT-PCR (FIG. 2).
The following exemplary procedures can be used. Upon purification of total RNA, real-time PCR is performed with 100 ng of total RNA, using an Applied Biosystems 7500 instrument (Applied Biosystems, Foster City, Calif.) using TaqMan Sequence Detection chemistry which uses a fluorogenic probe (FAM) to enable the detection of a specific PCR product as it accumulates during PCR. Samples are prepared in triplicate in 50 μl reaction volumes. […]
TaqMan® Gene Expression Assays are pre-formulated gene expression assays for rapid, reliable detection and quantification of human, mouse and rat mRNA transcripts. […] Data is analyzed using 7500 Real-Time PCR System Sequence Detection software v1.3 using the comparative CT relative quantification calculation method. The output is expressed as a fold-change of expression levels. The threshold level is selected to be automatically determined by the software and is set to be above the baseline but sufficiently low to be within the exponential growth region of an amplification curve. The cycle number at which the fluorescence signal associated with a particular amplicon accumulation crosses the threshold is referred to as the CT.

SMILES	order of sensitivity of the various NHL cell lines [1]	anti-proliferative activity against NHL cells ([1]; 3 days of treatment, 0.01, 0.1, 1, 10 and 100 μM, FIG. 1)	dose dependence of the anti-proliferative effect ([1]; ranges tested 0, 0.01, 0.1, 1, 10 and 100 μM, especially in MCL cell lines)	response of DB cell line (rate of cell proliferation) (DB cell line)	expression of SPARC mRNA (SPARC mRNA)
Nc1cccc2c1CN(C1CCC(=O)NC1=O)C2=O (centres unmarked) [1-oxo-2-(2,6-dioxopiperidin-3-yl)-4-aminoisoindoline, reference compound]	Namalwa (Burkitt's lymphoma)>Jeko-1>Rec-1>JVM-2>Granta-519 (all Mantle Cell Lymphomas, MCL)>DB	–	–	–	–
Cc1cccc2nc(C)n(C3CCC(=O)NC3=O)c(=O)c12 (centres unmarked) [3-(2,5-dimethyl-4-oxo-4H-quinazolin-3-yl)-piperidine-2,6-dione]	–	demonstrated anti-proliferative activity	dose dependent	increased rate of cell proliferation	increased the expression of SPARC mRNA
